Measurements taken from US9493461B2, “Tetracyclic heterocycle compounds and methods of use thereof for the treatment of hepatitis C” (priority 2013, dated 2016).

Experiments:
[1] = system: HCV replicon genotype 1a; test: HCV replicon assay, genotype 1a (cell ELISA for replicon-encoded NS3/4A); format: cell-based, hepatitis C virus (HCV); conditions: Hepatitis C virus, 96 h, read-out: 1a IC50 (nM), genotype 1a replicon cells, 96 hours incubation, NS3/4A ELISA readout, % of DMSO control
How it was run: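 Stable G418-selected neomycin-resistant HCV replicon cells were plated with serially diluted compound without G418 and incubated 96 h. After washing and lysis, replicon RNA was measured indirectly by cell ELISA for replicon-encoded NS3/4A; IC50 from four-parameter fit relative to DMSO control.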

[2] = system: HCV replicon genotype 1b; test: HCV replicon assay, genotype 1b (cell ELISA for replicon-encoded NS3/4A); format: cell-based, hepatitis C virus (HCV); conditions: Hepatitis C virus, 96 h, read-out: 1b IC50 (nM), genotype 1b replicon cells, 96 hours incubation, NS3/4A ELISA readout, % of DMSO control
How it was run: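 Genotype 1b replicon cells (neomycin-selected, G418 removed for assay) incubated 96 h with compound dilution series. Replication measured by cell ELISA for replicon-encoded NS3/4A after lysis; IC50 from four-parameter fit relative to DMSO control.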

CNC(=O)c1c(-c2ccc(F)cc2)oc2cc(N(C)S(C)(=O)=O)c(-c3ccc4c(n3)-c3cc5c(F)cccc5n3C(C)N4)cc12 (stereo not drawn) [Example 61, 5-(11-fluoro-6-methyl-5,6-dihydropyrido[3′,2′:4,5]pyrimido[1,6-a]indol-2-yl)-2-(4-fluorophenyl)-N-methyl-6-(N-methylmethylsulfonamido)benzofuran-3-carboxamide]
IC50 [1]: 2.6 nM
IC50 [2]: 3.01 nM

CNC(=O)c1c(-c2ccc(F)cc2)oc2cc(N(C)S(C)(=O)=O)c(-c3ccc4nc(C(=O)OC)n5c6cccc(F)c6cc5c4n3)cc12 [Example 62, methyl 11-fluoro-2-(2-(4-fluorophenyl)-3-(methylcarbamoyl)-6-(N-methylmethylsulfonamido)benzofuran-5-yl)pyrido[3′,2′:4,5]pyrimido[1,6-a]indole-6-carboxylate]
IC50 [1]: 8.67 nM
IC50 [2]: 12.2 nM

CNC(=O)c1c(-c2ccc(F)cc2)oc2cc(N(C)S(C)(=O)=O)c(-c3ccc4nc(CC(=O)OC)n5c6cccc(F)c6cc5c4n3)cc12 [Example 63, methyl 2-(11-fluoro-2-(2-(4-fluorophenyl)-3-(methylcarbamoyl)-6-(N-methylmethylsulfonamido)benzofuran-5-yl)pyrido[3′,2′:4,5]pyrimido[1,6-a]indol-6-yl)acetate]
IC50 [1]: 1.55 nM
IC50 [2]: 2.76 nM

CNC(=O)c1c(-c2ccc(F)cc2)oc2cc(N(C)S(C)(=O)=O)c(-c3ccc4c(n3)-c3cc5c(F)cccc5n3C(CO)N4)cc12 (stereo not drawn) [Example 64, 5-(11-fluoro-6-(hydroxymethyl)-5,6-dihydropyrido[3′,2′:4,5]pyrimido[1,6-a]indol-2-yl)-2-(4-fluorophenyl)-N-methyl-6-(N-methylmethylsulfonamido)benzofuran-3-carboxamide]
IC50 [1]: 11.8 nM
IC50 [2]: 11.8 nM

CNC(=O)c1c(-c2ccc(F)cc2)oc2cc(N(C)S(C)(=O)=O)c(-c3ccc4c(n3)-c3cc5c(F)cccc5n3C(CCO)N4)cc12 (stereo not drawn) [Example 65, 5-(11-fluoro-6-(2-hydroxyethyl)-5,6-dihydropyrido[3′,2′:4,5]pyrimido[1,6-a]indol-2-yl)-2-(4-fluorophenyl)-N-methyl-6-(N-methylmethylsulfonamido)benzofuran-3-carboxamide]
IC50 [1]: 2.52 nM
IC50 [2]: 2.42 nM

CNC(=O)c1c(-c2ccc(F)cc2)oc2cc(N(C)S(C)(=O)=O)c(-c3ccc4c(n3)-c3cc5c(F)cccc5n3C(C)(C)N4)cc12 [Example 66, 5-(11-fluoro-6,6-dimethyl-5,6-dihydropyrido[3′,2′:4,5]pyrimido[1,6-a]indol-2-yl)-2-(4-fluorophenyl)-N-methyl-6-(N-methylmethylsulfonamido)benzofuran-3-carboxamide]
IC50 [1]: 5.96 nM
IC50 [2]: 9.23 nM

CNC(=O)c1c(-c2ccc(F)cc2)oc2cc(N(C)S(C)(=O)=O)c(-c3ccc4c(n3)-c3cc5c(F)cccc5n3CN4C)cc12 [Example 67, 5-(11-fluoro-5-methyl-5,6-dihydropyrido[3′,2′:4,5]pyrimido[1,6-a]indol-2-yl)-2-(4-fluorophenyl)-N-methyl-6-(N-methylmethylsulfonamido)benzofuran-3-carboxamide]
IC50 [1]: 1.56 nM
IC50 [2]: 2.72 nM

CNC(=O)c1c(-c2ccc(F)cc2)oc2cc(N(C)S(C)(=O)=O)c(-c3ccc4c(n3)-c3cc5c(F)cccc5n3CN4CC(=O)OC)cc12 [Example 69, methyl 2-(11-fluoro-2-(2-(4-fluorophenyl)-3-(methylcarbamoyl)-6-(N-methylmethylsulfonamido)benzofuran-5-yl)pyrido[3′,2′:4,5]pyrimido[1,6-a]indol-5(6H)-yl)acetate]
IC50 [1]: 9.69 nM
IC50 [2]: 6.04 nM

CNC(=O)c1c(-c2ccc(F)cc2)oc2cc(N(C)S(C)(=O)=O)c(-c3ccc4c(n3)-c3cc5c(F)cccc5n3CN4CC(=O)O)cc12 [Example 70, 2-(11-fluoro-2-(2-(4-fluorophenyl)-3-(methylcarbamoyl)-6-(N-methylmethylsulfonamido)benzofuran-5-yl)pyrido[3′,2′:4,5]pyrimido[1,6-a]indol-5(6H)-yl)acetic acid]
IC50 [1]: 35.2 nM
IC50 [2]: 26.8 nM

CNC(=O)c1c(-c2ccc(F)cc2)oc2cc(N(C)S(C)(=O)=O)c(-c3ccc4c(n3)-c3cc5c(F)cccc5n3C(CC(=O)OC)N4)cc12 (stereo not drawn) [Example 71, methyl 2-(11-fluoro-2-(2-(4-fluorophenyl)-3-(methylcarbamoyl)-6-(N-methylmethylsulfonamido)benzofuran-5-yl)-5,6-dihydropyrido[3′,2′:4,5]pyrimido[1,6-a]indol-6-yl)acetate]
IC50 [1]: 2.98 nM
IC50 [2]: 3.44 nM

CNC(=O)c1c(-c2ccc(F)cc2)oc2cc(N(C)S(C)(=O)=O)c(-c3ccc4c(n3)-c3cc5c(F)cccc5n3C(CC(=O)O)N4)cc12 (stereo not drawn) [Example 72, 2-(11-fluoro-2-(2-(4-fluorophenyl)-3-(methylcarbamoyl)-6-(N-methylmethylsulfonamido)benzofuran-5-yl)-5,6-dihydropyrido[3′,2′:4,5]pyrimido[1,6-a]indol-6-yl)acetic acid]
IC50 [1]: 22.8 nM
IC50 [2]: 15.6 nM

CNC(=O)c1c(-c2ccc(F)cc2)oc2cc(N(C)S(C)(=O)=O)c(-c3cc4c(cn3)ncn3c5cccc(F)c5cc43)cc12 [Example 74, 2-(4-fluorophenyl)-5-(11-fluoropyrido[3′,4′:4,5]pyrimido[1,6-a]indol-2-yl)-N-methyl-6-(N-methylmethylsulfonamido)benzofuran-3-carboxamide]
IC50 [1]: 1.21 nM
IC50 [2]: 3.07 nM

CNC(=O)c1c(-c2ccc(F)cc2F)oc2cc(N(C)S(C)(=O)=O)c(-c3cc4c(cn3)ncn3c5cccc(F)c5cc43)cc12 [Example 75]
IC50 [1]: 1.03 nM
IC50 [2]: 2.78 nM

CNC(=O)c1c(-c2ccc(F)cc2)oc2cc(N(C)S(C)(=O)=O)c(-c3ccc4nc(CN5CC(F)C5)n5c6cccc(F)c6cc5c4n3)cc12 [Example 76, 3-fluoro-1-((11-fluoro-2-(2-(4-fluorophenyl)-3-(methylcarbamoyl)-6-(N-methylmethylsulfonamido)benzofuran-5-yl)pyrido[3′,2′:4,5]pyrimido[1,6-a]indol-6-yl)methyl)azetidin-1-ium methanesulfonate]
IC50 [1]: 4.13 nM
IC50 [2]: 3.78 nM

CNC(=O)c1c(-c2ccc(F)cc2)oc2cc(N(C)S(C)(=O)=O)c(-c3ccc4nc(CN5CC(O)C5)n5c6cccc(F)c6cc5c4n3)cc12 [Example 77]
IC50 [1]: 5.26 nM
IC50 [2]: 5.61 nM

CNC(=O)c1c(-c2ccc(F)cc2)oc2cc(N(C)S(C)(=O)=O)c(-c3ccc4nc(CN5CC(C)(O)C5)n5c6cccc(F)c6cc5c4n3)cc12 [Example 78]
IC50 [1]: 2.8 nM
IC50 [2]: 3.34 nM

CNC(=O)c1c(-c2ccc(F)cc2)oc2cc(N(C)S(C)(=O)=O)c(-c3ccc4nc(CN5CC6(CCOCC6)C5)n5c6cccc(F)c6cc5c4n3)cc12 [Example 79]
IC50 [1]: 2.37 nM
IC50 [2]: 3.99 nM

CNC(=O)c1c(-c2ccc(F)cc2)oc2cc(N(C)S(C)(=O)=O)c(-c3ccc4nc(CN5CC(F)(F)C5)n5c6cccc(F)c6cc5c4n3)cc12 [Example 80]
IC50 [1]: 2.65 nM
IC50 [2]: 2.46 nM

CNC(=O)c1c(-c2ccc(F)cc2)oc2cc(N(C)S(C)(=O)=O)c(-c3ccc4nc(CN5CC(C)(F)C5)n5c6cccc(F)c6cc5c4n3)cc12 [Example 81]
IC50 [1]: 3.24 nM
IC50 [2]: 3.28 nM

CNC(=O)c1c(-c2ccc(F)cc2)oc2cc(N(C)S(C)(=O)=O)c(-c3ccc4nc(CN5CCC(F)(F)C5)n5c6cccc(F)c6cc5c4n3)cc12 [Example 82]
IC50 [1]: 2.74 nM
IC50 [2]: 2.45 nM

CNC(=O)c1c(-c2ccc(F)cc2)oc2cc(N(C)S(C)(=O)=O)c(-c3ccc4nc(CN5CC[C@H](O)C5)n5c6cccc(F)c6cc5c4n3)cc12 [Example 83]
IC50 [1]: 1.33 nM
IC50 [2]: 1.31 nM

CNC(=O)c1c(-c2ccc(F)cc2)oc2cc(N(C)S(C)(=O)=O)c(-c3ccc4nc(CN5CCC5)n5c6cccc(F)c6cc5c4n3)cc12 [Example 84]
IC50 [1]: 1.34 nM
IC50 [2]: 1.96 nM

CNC(=O)c1c(-c2ccc(F)cc2)oc2cc(N(C)S(C)(=O)=O)c(-c3ccc4nc(CN5CC[C@@H](F)C5)n5c6cccc(F)c6cc5c4n3)cc12 [Example 85]
IC50 [1]: 1.76 nM
IC50 [2]: 2.34 nM

CNC(=O)c1c(-c2ccc(F)cc2)oc2cc(N(C)S(C)(=O)=O)c(-c3ccc4nc(CN5CC[C@H](F)C5)n5c6cccc(F)c6cc5c4n3)cc12 [Example 86]
IC50 [1]: 1.99 nM
IC50 [2]: 2.66 nM

CNC(=O)c1c(-c2ccc(F)cc2)oc2cc(N(C)S(C)(=O)=O)c(-c3ccc4nc(CN5CC[C@@H](O)C5)n5c6cccc(F)c6cc5c4n3)cc12 [Example 87]
IC50 [1]: 1.28 nM
IC50 [2]: 1.26 nM

CNC(=O)c1c(-c2ccc(F)cc2)oc2cc(N(C)S(C)(=O)=O)c(-c3ccc4nc(CN5CC(OC)C5)n5c6cccc(F)c6cc5c4n3)cc12 [Example 88]
IC50 [1]: 4.09 nM
IC50 [2]: 4.22 nM

CNC(=O)c1c(-c2ccc(F)cc2)oc2cc(N(C)S(C)(=O)=O)c(-c3ccc4nc(CN5CC(C)(C#N)C5)n5c6cccc(F)c6cc5c4n3)cc12 [Example 89]
IC50 [1]: 3.41 nM
IC50 [2]: 3.45 nM

CNC(=O)c1c(-c2ccc(F)cc2)oc2cc(N(C)S(C)(=O)=O)c(-c3ccc4nc(CN5CCOCC5)n5c6cccc(F)c6cc5c4n3)cc12 [Example 90]
IC50 [1]: 3.62 nM
IC50 [2]: 3.66 nM

CNC(=O)c1c(-c2ccc(F)cc2)oc2cc(N(C)S(C)(=O)=O)c(-c3ccc4nc(CN5CC[C@H](OC)C5)n5c6cccc(F)c6cc5c4n3)cc12 [Example 91]
IC50 [1]: 3.58 nM
IC50 [2]: 6.54 nM

CNC(=O)c1c(-c2ccc(F)cc2)oc2cc(N(C)S(C)(=O)=O)c(-c3ccc4nc(CN5CCC(F)(F)CC5)n5c6cccc(F)c6cc5c4n3)cc12 [Example 92]
IC50 [1]: 14.6 nM
IC50 [2]: 23.7 nM
